{"source": "ChEMBL document CHEMBL2010697", "about": "“Fragment based drug discovery: practical implementation based on ¹⁹F NMR spectroscopy” (J Med Chem, 2012)", "key": {"Beta-secretase 1 [1]": {"biological_target": "T1, Beta-secretase 1 (Homo sapiens, UniProt P56817)", "T1 sequence (P56817 whole entry)": "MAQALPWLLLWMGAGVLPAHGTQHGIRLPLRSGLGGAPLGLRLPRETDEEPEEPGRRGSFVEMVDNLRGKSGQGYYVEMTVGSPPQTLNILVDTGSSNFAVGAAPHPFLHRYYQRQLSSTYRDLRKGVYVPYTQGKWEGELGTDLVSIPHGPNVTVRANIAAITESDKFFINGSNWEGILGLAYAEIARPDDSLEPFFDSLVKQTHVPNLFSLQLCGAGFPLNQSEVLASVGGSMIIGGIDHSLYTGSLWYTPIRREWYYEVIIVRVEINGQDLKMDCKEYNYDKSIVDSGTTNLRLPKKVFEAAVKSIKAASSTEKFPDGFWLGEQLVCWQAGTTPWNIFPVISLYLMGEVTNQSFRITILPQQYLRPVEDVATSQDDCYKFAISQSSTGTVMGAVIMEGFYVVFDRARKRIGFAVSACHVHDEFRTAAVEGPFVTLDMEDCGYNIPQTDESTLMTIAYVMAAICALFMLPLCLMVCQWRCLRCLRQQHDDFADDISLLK", "test": "Binding affinity to BACE1 by surface plasmon resonance method"}, "Beta-secretase 1 [2]": {"biological_target": "T1, Beta-secretase 1", "test": "Binding affinity to BACE1 by NMR-based differential chemical shift perturbation method"}}}
{"smiles": "Cc1ccc2nc(N)ccc2c1", "values": [{"measurement": "Kd", "setting": "Beta-secretase 1 [1]", "value": 1600, "unit": "µM"}]}
{"smiles": "Nc1cc(C(F)(F)F)c2ccccc2n1", "values": [{"measurement": "Kd", "setting": "Beta-secretase 1 [1]", "value": 2900, "unit": "µM"}]}
{"smiles": "N=C(N)SCc1c(F)cccc1Cl", "values": [{"measurement": "Kd", "setting": "Beta-secretase 1 [2]", "value": 350, "unit": "µM"}, {"measurement": "Kd", "setting": "Beta-secretase 1 [1]", "value": 300, "unit": "µM"}]}
{"smiles": "Nc1ccc2cc(C(F)(F)F)ccc2n1", "values": [{"measurement": "Kd", "setting": "Beta-secretase 1 [1]", "value": 3900, "unit": "µM"}]}
{"smiles": "Nc1ccc2cc(-c3ccccc3C(F)(F)F)ccc2n1", "values": [{"measurement": "Kd", "setting": "Beta-secretase 1 [2]", "value": 200, "unit": "µM"}, {"measurement": "Kd", "setting": "Beta-secretase 1 [1]", "value": 200, "unit": "µM"}]}
{"smiles": "Cc1cc(N)nc2ccccc12", "values": [{"measurement": "Kd", "setting": "Beta-secretase 1 [1]", "value": 1300, "unit": "µM"}]}
{"smiles": "Fc1cccc(Cl)c1CN1CCNCC1", "values": [{"measurement": "Kd", "setting": "Beta-secretase 1 [2]", "value": "> 1000", "unit": "µM"}, {"measurement": "Kd", "setting": "Beta-secretase 1 [1]", "value": "> 2000", "unit": "µM"}]}
{"smiles": "Fc1cccc(C2NCCc3sccc32)c1", "note": "(racemic)", "values": [{"measurement": "Kd", "setting": "Beta-secretase 1 [2]", "value": "> 1000", "unit": "µM"}, {"measurement": "Kd", "setting": "Beta-secretase 1 [1]", "value": "> 2000", "unit": "µM"}]}
{"smiles": "NC1=Nc2ccccc2Sc2cccc(F)c21", "values": [{"measurement": "Kd", "setting": "Beta-secretase 1 [2]", "value": 400, "unit": "µM"}, {"measurement": "Kd", "setting": "Beta-secretase 1 [1]", "value": 325, "unit": "µM"}]}
{"smiles": "Nc1ccc2cc(-c3ccccc3F)ccc2n1", "values": [{"measurement": "Kd", "setting": "Beta-secretase 1 [1]", "value": 39, "unit": "µM"}]}
{"smiles": "O=C(NC1CCCCC1)C(F)(F)F", "values": [{"measurement": "Kd", "setting": "Beta-secretase 1 [2]", "value": "> 1000", "unit": "µM"}]}
{"smiles": "Nc1ccc2cc(F)ccc2n1", "values": [{"measurement": "Kd", "setting": "Beta-secretase 1 [2]", "value": 1000, "unit": "µM"}, {"measurement": "Kd", "setting": "Beta-secretase 1 [1]", "value": 1280, "unit": "µM"}]}
